Measured values as given in article PMC8416643 (International Journal for Parasitology: Drugs and Drug …, 2021).
pEC50: −log10 of the molar value. Where “and” joins values, the source holds several entries; their conditions need not be identical. Equal entries are not always repeated. Entries after “also recorded” stand apart in the source; their conditions may differ. Where two headings read alike, the source gives them in different places.

Experiments:
[1] = tested on: BALB/c mice; assay: Assessment of potential interference in pregnancy in non-infected BALB/c mice; format: in vivo; details: ELQs 10 mg/kg, BKI-1748 20 mg/kg; for Fertility: corn oil, gavage, days 9–13 of pregnancy, pregnant/total females
Procedure: Thirty-six BALB/c female and 18 male mice, six weeks of age were used. […] After mating, males were removed and female mice were randomly allocated to six experimental groups (six mice per group, two females per cage). […] The placebo group received 100 μl corn oil for five consecutive days. […] During the experimental period, mice were examined daily and weighed several times during pregnancy to determine the number of pregnant animals and to detect possible abortions (which would result in rapid weight loss). On day 18 post-mating, pregnant females were separated into individual cages, where they gave birth on days 20–22 post mating. Live and stillborn pups were counted, and dead pups removed. Data on the number of female mice that became pregnant, litter size (number of delivered pups per dam), stillborn mice (dead pups from birth until day two post-partum), post-natal mortality (dead pups from day three post-partum to the end of the experiment), and clinical signs of treated mice were recorded. Dams and live pups were monitored for two weeks after birth to rule out possible adverse effects due to treatments. At the end of the experiment, mice were euthanized in a euthanasia chamber using isoflurane and CO2.

[2] = tested on: N. caninum NcSp-7 tachyzoites; details: BKI-1748 20 mg/kg
Procedure: Ninety BALB/c female mice and 45 male mice, six weeks of age were used in this experiment. Oestrus synchronization and mating was performed as described above. After mating, (day 0) female mice were randomly assigned to seven groups: ELQ-334 (n = 14), ELQ-422 (n = 14), BKI-1748 (n = 14), ELQ-334 + BKI-1748 (n = 14), ELQ-422 + BKI-1748 (n = 14), positive control (corn oil treatment and infection, n = 14), and negative control (corn oil treatment without infection, n = 6). NcSp-7 tachyzoites were transferred from HFF cells to BALB/c dermal fibroblasts and maintained at 37 °C and 5% CO2 three days prior to infection ([Imhof et al., 2021]). On day 7, tachyzoites were harvested and prepared for infection as previously described ([Arranz-Solís et al., 2015]). In brief, tachyzoite-infected fibroblasts were recovered from culture flasks when they were >90% of intracellular tachyzoites still located in parasitophorous vacuoles, and infected cells were repeatedly passed through a 25-gauge needle at 4 °C. […] A sublethal dose of 10^5 tachyzoites in 100 μl were administered to each mouse by subcutaneous injection. The negative control group was inoculated with 100 μl dermal fibroblasts. From two days post-infection (day 9), compounds were administered in 100 μl corn oil on days nine to 13 of pregnancy, calculated after the first day of mating, as follows: ELQ-334 was administered at 5 mg/kg, ELQ-422 at 7.5 mg/kg, and BKI-1748 was administered at 20 mg/kg. The combined treatment groups were: ELQ-334 at 5 mg/kg + BKI-1748 at 20 mg/kg, and ELQ-422 at 7.5 mg/kg + BKI-1748 at 20 mg/kg. The positive and negative controls received 100 μl corn oil for five consecutive days. On day 18, pregnant females were separated into individual cages, they gave birth on days 20–22, and were allowed to rear their pups for 28 days until day 48–50. Live and stillborn pups were counted, and dead pups were removed, and the non-pregnant mice were also monitored during the following 30 days until day 50. Dams and their offspring were evaluated for clinical signs of disease, and data on the number of dams, stillborn pups and those dying postnatally were monitored. All mice were euthanized four weeks post-partum as described above. Blood was collected by cardiac puncture, centrifuged, and serum was stored at −20 °C for subsequent analysis of IgG1 and IgG2a levels by ELISA. Brain was collected and stored at −20 °C prior to further processing.
For the quantification of the brain parasite load in all the mice, a real-time PCR method designed for quantification of N. caninum DNA was employed ([Aguado-Martínez et al., 2019]; [Müller et al., 2002]). DNA extraction and purification were done with the NucleoSpin DNA RapidLyse Kit (Macherey-Nagel, Oensingen, Switzerland) employing the standard protocols. DNA concentrations in all samples were determined using the QuantiFluor double-stranded DNA (dsDNA) system (Promega, Madison, WI, USA) according to the manufacturer's instructions and adjusted to 5 ng/μl with sterile DNase-free water. Quantitative real-time PCR was performed using the Light Cycler (Roche, Basel, Switzerland), and parasite loads calculated with a standard curve of N. caninum DNA samples of 10, 100, and 1000 tachyzoites included in each run.
Levels of IgG1 and IgG2a in N. caninum infected mice were assessed by ELISA as described previously ([Debache et al, 2008], [2009]). Briefly, 96-well plates were coated with 200 ng NcSp-7 soluble tachyzoite protein extract diluted in coating buffer (50 mM sodium bicarbonate; 50 mM sodium carbonate both dissolved in ultrapure water; pH 9.6) per well.

[3] = tested on: N. caninum NcSp-7 tachyzoites; design: method as in Anghel et al., 2018; details: ref Anghel et al., 2018, cited from earlier work
[4] = tested on: T. gondii; design: method as in Doggett et al., 2020; Martynowicz et al., 2020; details: persistently T. gondii infected mice, ref Doggett et al., 2020, Martynowicz et al.; cited from earlier work
[5] = tested on: N. caninum transgenic strain expressing β-galactosidase; assay: In vitro proliferation of Nc-β-gal tachyzoites in HFF monolayers (β-galactosidase readout); format: cell-based, Neospora caninum; details: compound added concomitantly to infection, 72 h
Procedure: In vitro efficacy assessments of ELQ-316, ELQ-334, ELQ-422, BKI-1748, and respective drug combinations were done using Nc-β-gal ([Barna et al., 2013]; [Schorer et al., 2012]). Briefly, HFF monolayers were cultured in 96-well plates and were infected with 10^3 Nc-β-gal tachyzoites in the presence of ELQ-316, ELQ-334, ELQ-422, and BKI-1748, as well as the combinations of BKI-1748 with each of the three ELQs. All drugs and combinations were prepared as serial dilutions of 20000, 2000, 200, 20, 2, 0.2, 0.02, 0.002 and 0.0002 nM in cell culture medium, respectively. The stock solutions of ELQs as well as the medium were heated up to 37 °C before use. After three days of culture (37 °C/5% CO2) in the presence of compounds, wells were washed with 200 μl PBS, and 90 μl of PBS containing 0.05% Triton X-100 were added into each well. After addition of 10 μl 5 mM chlorophenol red-β-D-galactopyranoside dissolved in PBS, the absorption shift was measured at a wavelength of 570 nm at various time points on an Enspire multilabel reader (Perkin Elmer, Waltham). The half-maximal effective concentrations (EC50 values) were calculated after the logit-log transformation of relative growth and subsequent regression analysis by use of the corresponding software tool contained in the Excel software package (Microsoft, Seattle, WA).

[6] = BKI-1748 and ELQ-316 concentration in BALB/c mouse plasma (LC-MS/MS); format: in vivo; details: 1 h after final of 5 daily oral doses, ELQs 10 mg/kg, BKI-1748 20 mg/kg
Procedure: Thirty-six BALB/c female and 18 male mice, six weeks of age were used. Female mice were oestrus synchronized during three days by the Whitten effect ([Whitten, 1957]), and mated for three nights by housing one male with two females. After mating, males were removed and female mice were randomly allocated to six experimental groups (six mice per group, two females per cage). […] The placebo group received 100 μl corn oil for five consecutive days. […] Live and stillborn pups were counted, and dead pups removed. Data on the number of female mice that became pregnant, litter size (number of delivered pups per dam), stillborn mice (dead pups from birth until day two post-partum), post-natal mortality (dead pups from day three post-partum to the end of the experiment), and clinical signs of treated mice were recorded. Dams and live pups were monitored for two weeks after birth to rule out possible adverse effects due to treatments. […]
BKI-1748 and ELQ-316 concentrations in mouse plasma samples were determined as previously described ([Hulverson et al., 2019]; [Imhof et al., 2021]). Briefly, BKI-1748 and ELQ-316 were extracted from plasma using acetonitrile/0.1% formic acid with an internal standard and a standard curve was prepared for quantification. […]

[7] = tested on: BALB/c mice; details: non-infected pregnant BALB/c, five times 10 mg/kg/day, pups from four dams; ref Anghel et al., 2018; cited from earlier work
[8] = design: method as in Doggett et al., 2020; details: ref Doggett et al., 2020; cited from earlier work

CCOC(=O)Oc1c(-c2ccc(Oc3ccc(OC(F)(F)F)cc3)cc2)c(C)nc2cc(OC)c(F)cc12 [ELQ-334]
Fertility [1]: 2/6
Fertility ([1]; listed as ELQ-344): Two of six
Neonatal mortality ([1]; gavage days 9–13, pups born dead or died within 2 days post-partum): two out of 11 and 2/11
Postnatal mortality ([1]; gavage days 9–13, pups that died during days 3–14 post-partum): 1/9
Pups per dam ([1]; gavage days 9–13 of pregnancy): 11/2
Pups: Litter size ([2]; infected dams, ELQ-334 5 mg/kg, ELQ-422 7.5 mg/kg, days 9–13): 33
Pups: N. caninum PCR positive ([2]; infected dams, ELQ-334 5 mg/kg, ELQ-422 7.5 mg/kg, brains from surviving pups): 2/29
Vertical transmission of N. caninum to the pups ([2]; infected dams, ELQ-334 5 mg/kg, ELQ-422 7.5 mg/kg, positive control 100%): 10.3%
Inhibition of vertical transmission / pup infection ([2]; infected dams, ELQ-334 5 mg/kg/day): > 90%
Non-pregnant females: Clinical signs ([2]; infected, ELQ-334 5 mg/kg, ELQ-422 7.5 mg/kg, days 9–13): 0/8
Dams: Total no. ([2]; infected, ELQ-334 5 mg/kg, ELQ-422 7.5 mg/kg, days 9–13, pregnant/total females): 6/14
Reduction of vertical transmission ([3]; 10 mg/kg/day): 50%
Cerebral parasite burden in non-pregnant mice compared to the placebo group ([3]; 10 mg/kg): not notably reduced
Neonatal mortality ([3]; N. caninum infected pregnant mice, 10 mg/kg/day, pups from 10 dams): seven out of 44
Tissue cysts in the brain [4]: dramatic reduction of tissue cyst in the brain
pEC50 [5]: 7.27
Plasma concentration ELQ-316 ([6]; non-pregnant mouse): 11.16 µM and 15.81 µM and 13.24 µM
Plasma concentration ELQ-316 ([6]; pregnant mouse): 12.71 µM and 18.58 µM
Neonatal mortality [7]: one out of 27

COc1cc2[nH]c(C)c(-c3ccc(Oc4ccc(OC(F)(F)F)cc4)cc3)c(=O)c2cc1F [ELQ-316]
pEC50 [5]: 8.81
Solubility [8]: low solubility; also recorded: poor solubility
